Measured values as given in US20250099420A1, “SMALL MOLECULE MODULATORS OF GPR139 COMPLEX” (University of Florida Research Foundation, Incorporated, priority 2022, published 2025).
Like-named read-outs stand apart in the source and are kept apart here.

Legend:
parental HEK cells = experiment: HEK parental Agonist Counterscreen Assay (non-transfected cells); assay type: cell-based; settings: for Averaged Max % Response (±St. Dev.): activity relative to known control
From the text: The high control for the agonist counterscreen was Forskolin not acetylcholine.

GPR139 = target: T1, GPR139 (Homo sapiens, UniProt Q6DWJ6); experiment: GPR139 Agonist titration / agonist counterscreen assay (calcium detection, HEK-GPR139 cells); assay type: cell-based; set-up: expressed in transfected cells; host or cells: HEK Aequorin cells, Maxcyte transient transfection; settings: GPR139 Agonist Activity; for Averaged Max % Response (±St. Dev.): activity relative to known control; for EC50: read-out: EC50
T1 sequence (Q6DWJ6 1-353): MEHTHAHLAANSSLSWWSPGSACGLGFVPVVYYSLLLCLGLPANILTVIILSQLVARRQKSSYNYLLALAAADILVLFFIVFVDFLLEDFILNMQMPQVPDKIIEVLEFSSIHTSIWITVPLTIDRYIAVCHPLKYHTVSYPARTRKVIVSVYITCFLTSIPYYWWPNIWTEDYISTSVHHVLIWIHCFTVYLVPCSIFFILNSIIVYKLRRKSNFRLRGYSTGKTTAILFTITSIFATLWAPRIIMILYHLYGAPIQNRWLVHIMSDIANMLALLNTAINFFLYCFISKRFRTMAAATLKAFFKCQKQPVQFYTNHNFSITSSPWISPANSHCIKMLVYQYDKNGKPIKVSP
Description: GPR activity was assessed using a calcium detection assay. […] Negative control samples were treated with DMSO. […] Intracellular calcium was measured using Calcium 5.

[1] = Homo sapiens, HEK293, HEK Agonist Activity section of Table 4 (parental HEK counterscreen)
[2] = values printed in E-notation without unit
[3] = HEK Agonist Activity section of Table 4 (parental HEK counterscreen)
[4] = Homo sapiens, HEK293, HEK Agonist Activity, parental non-transfected HEK cells

SMILES | Lipophilic Efficiency (logD) (parental HEK cells; HEK Agonist Activity section) | Lipophilic Efficiency (logP) (parental HEK cells; HEK Agonist Activity section) | Averaged Max % Response (±St. Dev.) (parental HEK cells; HEK Agonist Activity section) [%] | EC50 (parental HEK cells; [1]) [nM] | Averaged Max % Response (±St. Dev.) (GPR139) [%] | Lipophilic Efficiency (logD) (GPR139; based on logD) | Lipophilic Efficiency (logP) (GPR139; based on logP) | Hill Slope (GPR139; fitted dose-response curve) | Efficiency Ligand (GPR139; ligand efficiency) | EC50 (GPR139; [2]) [nM] | EC50 (parental HEK cells; [3]) [nM] | Efficiency Ligand (GPR139) | Hill Slope (GPR139) | Lipophilic Efficiency (logD) (GPR139) | Lipophilic Efficiency (logP) (GPR139) | EC50 (GPR139; HEK-GPR139 cells) [nM] | Lipophilic Efficiency (logD) (parental HEK cells; HEK Agonist Activity) | Lipophilic Efficiency (logP) (parental HEK cells; HEK Agonist Activity) | Averaged Max % Response (±St. Dev.) (parental HEK cells; HEK Agonist Activity) [%] | EC50 (parental HEK cells; [4]) [nM]
Cc1ccccc1CS(=O)(=O)CCC(=O)NC(C)c1ccccc1 (stereo not shown) [SR-01000145393] | 2.34 | 2.34 | 10.41 ± 2.89 | > 14100 | 97.82 ± 12.25 | 4.42 | 4.42 | 0.70 | 0.40 | 116 |  |  |  |  |  |  |  |  |  | 
C=C1CC(C)(c2ccc(OC)cc2)C(=C)C1CC(=O)CC1CCCCC1 (stereo not shown) [SR-01000918719] | 3.17 | 3.17 | 19.77 ± 4.52 | > 14100 | 94.25 ± 9.34 | 5.17 | 5.17 | 0.65 | 0.37 |  |  |  |  |  |  |  |  |  |  | 
O=C(CCc1nc2cccnc2n1Cc1cccs1)NCCc1cccs1 [SR-01000077903] | 1.29 | 1.29 | 1.27 ± 2.74 | > 14100 | 105.59 ± 5.95 | 3.66 | 3.66 | 0.45 | 0.37 | 60.2 |  |  |  |  |  |  |  |  |  | 
Cc1ccc(SCC(=O)Nc2nnc(-c3ccco3)o2)cc1 [SR-01000021414] | 2.38 | 2.38 | 22.31 ± 11.03 |  | 97.10 ± 8.84 | 4.46 | 4.46 | 0.83 | 0.44 | 119 | > 14300 |  |  |  |  |  |  |  |  | 
CC(Oc1ccc(Cl)cc1Cl)C(=O)NNC(=O)COc1ccccc1 (stereo not shown) [SR-01000370374] | 1.71 | 1.66 | 4.76 ± 6.67 | > 14100 | 100.37 ± 4.50 | 3.80 | 3.75 | 0.87 | 0.39 | 114 |  |  |  |  |  |  |  |  |  | 
O=C(CSc1ccc(Cl)cc1)Nc1nnc(-c2ccc(F)cc2)o1 [SR-01000021435] | 1.22 | 1.22 | 24.48 ± 11.03 |  | 162.60 ± 13.73 | 3.60 | 3.60 |  | 0.42 | > 57.4 | > 13900 |  |  |  |  |  |  |  |  | 
O=C(Cn1ncc2c1-c1ccccc1OC2)Nc1ccc(Cl)cc1 [SR-01000098980] | 1.77 | 1.77 | 16.39 ± 16.07 |  | 103.90 ± 24.19 |  |  |  |  |  | > 14100 | 0.36 | 0.43 | 3.09 | 3.09 | 680 |  |  |  | 
COC(=O)C(CCSC)NC(=O)C1CC(Cc2ccc3c(c2)OCO3)=NO1 (stereo not shown) [SR-01000193756] | 3.01 | 3.01 | −12.55 ± 2.76 |  | 75.38 ± 12.05 |  |  |  |  |  | > 14100 | 0.30 | 0.69 | 4.01 | 4.01 | 1400 |  |  |  | 
O=C(C1CC(Cc2cccc3ccccc23)=NO1)N1CCC(C(O)Cc2ccccc2)CC1 (stereo not shown) [SR-01000185712] | 0.41 | 0.41 | 9.02 ± 5.86 |  | 110.27 ± 5.24 | 2.48 | 2.48 | 0.46 | 0.29 | 122 | > 14100 |  |  |  |  |  |  |  |  | 
Cc1ccc(S(=O)(=O)NC(=O)NC(C)Cc2ccccc2)cc1 (stereo not shown) [SR-01000362293] |  |  |  |  | 100.19 ± 16.30 | 5.01 | 4.07 | 1.02 | 0.46 | 33.5 |  |  |  |  |  |  | 2.39 | 1.45 | −7.08 ± 3.92 | > 14100
CC1(c2ccc3ccccc3c2)NC(=O)N(CC(=O)Nc2ccccc2Cl)C1=O (stereo not shown) [SR-01000066950] |  |  |  |  | 117.24 ± 4.32 | 3.74 | 3.74 | 0.61 | 0.36 | 40.5 |  |  |  |  |  |  | 1.21 | 1.21 | 2.95 ± 8.11 | > 13800
O=C(CN1CCN(Cc2ccccc2Cl)C1=O)NC1CCCCCC1 [SR-01000125460] | 2.02 | 2.02 | −2.02 ± 12.81 |  | 95.59 ± 27.48 | 4.03 | 4.03 | 1.03 | 0.38 | 141 | > 14100 |  |  |  |  |  |  |  |  | 
